According to BindingDB's records for doi:10.1021/jm9911581 (Cnrs Umr 8532, 2000):

Test system: HIV-1 integrase catalytic core (disintegration assay)
Assay: Compound was tested in vitro to inhibit human immuno virus-1 (HIV-1) using enzymatic disintegration assay.

IC50 [µM]	Structure (SMILES)
2.7	O=C(O)c1cc(/C=C/c2ccc3ccc(C(=O)O)c(O)c3n2)ccc1O [2-(3-carboxy-4-hydroxystyryl)-8-hydroxyquinoline-7-carboxylic acid]
> 100	Oc1cccc2ccc(/C=C/c3ccccc3)nc12 [2-Styryl-quinolin-8-ol]
4.2	O=C(O)c1ccc2ccc(/C=C/c3ccc(O)cc3)nc2c1O [8-hydroxy-2-(4-hydroxystyryl)quinoline-7-carboxylic acid]
3.4	O=C(O)c1ccc2ccc(/C=C/c3ccccc3)nc2c1O [8-hydroxy-2-styrylquinoline-7-carboxylic acid]
